System: apheresis patients (allergic reaction to dextran sulfate)
Excerpt: The protocol begins with the oral administration of an antacid and a histamine blocker. […] The histamine blocker can be selected from a number of commercial alternatives. These include, specifically, H-1 blockers, such as loratadine, fexofenadine and azelastine.
Centrally important and essential is the administration of magnesium, preferably magnesium IV, available as magnesium sulfate. Administration of magnesium sulfate, shortly in advance of apheresis, serves to relax the vascular system, and shift the patient or a sympathetic response to a parasympathetic vascular relaxation response. Magnesium realizes and calms the sympathetic FFF response, the survival instinct that is so prevalent in angioedema. […] While it can be infused over a longer period of more than one hour, a preferred protocol infuses it very rapidly. […] A drip in 100 ml-250 ml normal physiologic saline solution (Ns) or lactated Ringers solution (LR) has been employed. Other carriers, such as dextrose in water (5%) (D5W) or sterile water at smaller volumes, or similar physiologically compatible carriers may be used. A faster drip of not more than 30 minutes is preferable, and may be essential to intervene in and reduce ongoing severe reactions.
When the apheresis is done, dextran sulfate exposure can still cause a reaction. […] Apheresis patients also get oxygen via canula, 2-4 liters a minute through the procedure. […]

SMILES: O=S(=O)([O-])[O-].[Mg+2] [magnesium sulfate]
- allergic reactions observed during dextran sulfate apheresis (full protocol: ACE inhibitors stopped at least a week before, antacid and H-1 histamine blocker, magnesium sulfate IV no more than an hour before apheresis, at least 60 apheresis treatments, at least thirty patients): no issues and little or no allergic reactions were observed
- tolerance of Liposorber apheresis treatment (seven patients with previous anaphylactoid shock reaction to Liposorber even with IV steroids, magnesium sulfate without any supportive or additional treatments): allowed all 7 patients to tolerate the treatment
